Data as given in patent US20140173774A1, “SOYBEAN TRAN[…] EFFICIENT AND HIGH-[…] PRODUCTION” (Dow AgroSciences LLC, priority 2012, published 2014).

How the values were obtained:
[1] = system: un-transformed soybean explants; assay: Glyphosate dose response study on un-transformed soybean explants in tissue culture; conditions: for Number of Explants at Various Stages of Selection: End of SE-2 / Number of Explants at Various Stages of Selection: SE-1 / Number of Explants at Various Stages of Selection: SE-2 / Number of Explants at Various Stages of Selection: SI-2: 49 explants at CC
Description: Initially, a dose response study was completed. To test the effect of glyphosate on the explants, glyphosate was added to media used from the shoot initiation stage and onwards. Glyphosate was tested from the range of 0.025-0.2 mM. Incorporation of glyphosate in tissue culture media within this concentration range has been reported in soybean (Clemente et al, 2000; Hinchee et al, 1996; Martinell et al, 2006; Martinell et al, 1999; Martinell et al, 2002), tobacco (Singer et al, 1985), cotton (Zhao et al, 2006) and wheat (Hu et al, 2003). Five concentrations of glyphosate were tested for culturing of un-transformed soybean explants. The concentrations incorporated into the SI-2 media were 0.025 mM, 0.05 mM, 0.075 mM, 0.1 mM and 0.2 mM. The un-transformed soybean explants were maintained on the same rate of glyphosate selection for all the successive stages of subculture from SI-2 media to the completion of the tissue culturing protocol. The numbers of healthy explants were counted at each subculture stage. Dead explants were discarded and healthy explants were subcultured further onto appropriate media.
Growth of the explants was also retarded on glyphosate containing media. Next, the cotyledons were removed and the explants were subcultured from SI-2 to SE media. At the end of another two weeks of selection on SE media, significant differences in the growth of the explants were observed when the explants were exposed to different levels of glyphosate. The retarded growth of the explants was proportionate to the increasing dose of glyphosate. Similarly the number of dead explants was also proportional to the increasing dose of glyphosate. The number of dead explants increased as the dose of glyphosate was increased. […] Subsequently, three different concentrations of glyphosate (e.g., 0.025 mM, 0.05 mM and 0.1 mM) were incorporated into the selection schemes for Agrobacterium-mediated transformation of the soybean split-seed explants comprising a portion of an embryonic axis.

soybean explants = assay: Glyphosate selection of split-seed explants transformed with pDAB107553; design: species or system Glycine max cv. Maverick
Description: The novel Agrobacterium-mediated soybean split-seed comprising a portion of an embryonic axis transformation method described in Example 2 was used to transform mature soybean (Glycine max) cv. Maverick seeds with an Agrobacterium strain harboring pDAB 107553. Three different concentrations of glyphosate (e.g., 0.025 mM, 0.05 mM and 0.1 mM) were incorporated into the selection schemes for the soybean split-seed comprising a portion of an embryonic axis transformation method.
As the transformation experiment progressed through various subculture stages, the health of the soybean explants deteriorated. […] The intensity of cotyledon yellowing was more prominent in soybean explants cultured on greater rates of glyphosate (FIG. 9).
The surface of the explants was turning soft and creamy in consistency. The softening effect was very pronounced at the end of SE-1 stage onwards.

Which “Number of Explants at Various Stages of Selection: End of SE-2” value (from here on “Number … of Selection: End of SE-2”) ([1]; 0.025 mM glyphosate) does the source give for O=C(O)CNCP(=O)(O)O [glyphosate] here?
The value was 0.

What about the “Number of Explants at Various Stages of Selection: SE-1” value (“Number … of Selection: SE-1” for short) ([1]; 0.025 mM glyphosate) of the same molecule?
The value was 41.

What about the “Number of Explants at Various Stages of Selection: SE-2” value (from here on “Number … of Selection: SE-2”) ([1]; 0.025 mM glyphosate) of the same molecule?
The value was 38.

What about the “Number of Explants at Various Stages of Selection: SI-2” value (from here on “Number … of Selection: SI-2”) ([1]; 0.025 mM glyphosate) of the same molecule?
Its value is 43.

What about the “Number … of Selection: End of SE-2” value ([1]; 0.05 mM glyphosate) of the same molecule?
Its value is 0.

And the “Number … of Selection: SE-1” value ([1]; 0.05 mM glyphosate)?
Its value is 45.

And the “Number … of Selection: SE-2” value ([1]; 0.05 mM glyphosate)?
The value was 38.

What about the “Number … of Selection: SI-2” value ([1]; 0.05 mM glyphosate) of the same molecule?
Its value is 45.

What about the “Number … of Selection: End of SE-2” value ([1]; 0.075 mM glyphosate) of the same molecule?
Its value is 0.

What about the “Number … of Selection: SE-1” value ([1]; 0.075 mM glyphosate) of the same molecule?
The value was 45.

And the “Number … of Selection: SE-2” value ([1]; 0.075 mM glyphosate)?
The value was 21.

And the “Number … of Selection: SI-2” value ([1]; 0.075 mM glyphosate)?
Its value is 47.

And the “Number … of Selection: End of SE-2” value ([1]; 0.1 mM glyphosate)?
The value was 0.

What about the “Number … of Selection: SE-1” value ([1]; 0.1 mM glyphosate) of the same molecule?
The value was 41.

What about the “Number … of Selection: SE-2” value ([1]; 0.1 mM glyphosate) of the same molecule?
The value was 13.

What about the “Number … of Selection: SI-2” value ([1]; 0.1 mM glyphosate) of the same molecule?
Its value is 44.

What about the “Number … of Selection: End of SE-2” value ([1]; 0.2 mM glyphosate) of the same molecule?
Its value is 0.

And the “Number … of Selection: SE-1” value ([1]; 0.2 mM glyphosate)?
The value was 31.

And the “Number … of Selection: SE-2” value ([1]; 0.2 mM glyphosate)?
The value was 1.

And the “Number … of Selection: SI-2” value ([1]; 0.2 mM glyphosate)?
The value was 42.

And the “explant survival at the end of SE-2” value ([1]; all levels of glyphosate tested, after six weeks on selection)?
Its value is “all of the explants were dead”.

And the “extent of yellowness of the cotyledons” value ([1]; end of culturing on SI-2 media, about 2 weeks)?
Its value is “directly proportional to the dose of glyphosate”.

What about the “growth of the explants” value ([1]; glyphosate containing SI-2 media) of the same molecule?
The value was “retarded”.

And the “explants survived at the end of SE-1” value ([1]; highest dose, 0.2 mM)?
Its value is “one”.

And the “explant survival after 6 weeks of glyphosate selection” value ([1]; lowest dose tested, 0.025 mM)?
The value was “none of the soybean explants were able to survive”.

And the “yellowing of the cotyledons” value (soybean explants; after first selection cycle, two weeks on SI-2 media)?
Its value is “yellowing of the cotyledons was noted”.

And the “adverse physiological effects on explants” value (soybean explants; highest level, 0.1 mM, of 0.025, 0.05 and 0.1 mM)?
Its value is “greatest adverse physiological effects”.

And the “softening of explant tissue” value (soybean explants; media containing glyphosate, pronounced from end of SE-1)?
The value was “softening on the surfaces of the plant tissues”.
